“Also recorded” adds a separate entry of the source.
Tests used:
[1] = test system: primary human mobilized CD34+ cells; experiment: High throughput screening assay on primary human mobilized CD34+ cells, with secondary screen; type: cell-based
Source text: To identify novel putative agonists of HSC self-renewal, we have adapted a high throughput based-screening assay to test a library of small molecule compounds (5,280 low molecular weight compounds) on primary human mobilized CD34+ cells. It is to be understood that the same approach applies to CD34+ cells from the various sources known by a person skilled in the art to isolate CD34+ cells. Mononuclear cells were stained with Mouse antihuman CD34+APC (from BD Pharmingen) and subsequently magnetically labeled with Anti-APC magnetic MicroBeads (from MACS, Miltenyi Biotec). The magnetically labeled cells were retained using AutoMACS column. […]
In a 384-well plate, 2000 CD34^+ cells/well were cultured in 50 μl medium containing 1 μM of test compounds or 0.1% DMSO (vehicle). The proportion of CD34^+CD45RA^− cells was determined at the start of the experiment and after a 7-day incubation. Six out of the 5,280 compounds of different chemical backgrounds initially tested promoted CD34+CD45RA− cell expansion, and seventeen (17) enhanced differentiation as determined by the increase in proportions of CD34−CD45RA+ cells compared to control (DMSO). The six compounds promoting expansion of the CD34+CD45RA− cell population were re-analyzed in a secondary screen. […]

[2] = test system: AhR-responsive genes (CYP1B1 and AhRR); experiment: Real-time quantitative RT-PCR for AhR-responsive genes (FIG. 1); type: cell-based, human; conditions: mPB CD34(+) cells, 12 hours, Compound 1 500 nM
Description: Mobilized peripheral blood CD34(+) cells were cultured for 12 hours with DMSO, SR1 [AhR antagonist 1000 nM], and Compound 1 [500 nM], cells were harvested and real-time quantitative RT-PCR for AhR-responsive genes (CYP1B1 and AhRR) was performed.

[3] = test system: Mobilized peripheral blood CD34(+) cells; experiment: Growth factor (Flt3, SCF, TPO) requirement / mitogen test (FIG. 3); type: cell-based, human
Description: FIG. 3: Flt3, SCF, and TPO are required for compound 1 mediated stem cell expansion. Mobilized peripheral blood CD34(+) cells were cultured for 7 days in the presence or absence of the growth factors (Flt3+SCF+TPO).
This indicate that akin to SR1, Compound 1's effect on maintenance of primitive HSC phenotype ex vivo is not due to a mitogenic effect on this population but rather on the prevention of cell differentiation.

[4] = test system: CD34+ mobilized peripheral blood cells; experiment: FACS analysis of differentiation of CD34+ mobilized peripheral blood cells (FIG. 4A); type: cell-based, human
Source text: FIG. 4A illustrates the impact of Compound 1 on mobilized peripheral blood cell differentiation. Following a 7 day expansion, a relatively pure (>85% CD34^+) population of mobilized peripheral blood was exposed to control the (DMSO) or Compound 1 or SR1 or Compound 1+SR1.

[5] = test system: CD34+ mobilized peripheral blood (mPB) cells; experiment: Ex vivo expansion of mobilized peripheral blood-derived CD34+ and CD34+CD45RA− cells (FIG. 5A); type: cell-based, human
Source text: FIG. 5: A) Compound 1 expands mobilized peripheral blood-derived CD34+ and CD34+CD45RA− cell populations ex vivo. […] This observation was enhanced with the co-treatment with SR1.
[…]. The level of expansion is the same whether cultures are initiated with Compound 1, SR1, Compound 1+SR1, or control DMSO. […] […].

[6] = test system: CD34+CD45RA− cord blood cells; experiment: Ex vivo expansion of cord blood-derived CD34+ and CD34+CD45RA− cells (FIG. 5B, 5C); type: cell-based, human
[7] = test system: CD34+ mPB cells transplanted in NSG mice; experiment: Engraftment of cultured CD34+ mPB cells in NSG mice
[8] = test system: CD34+ CB cells transplanted in NSG mice; experiment: Engraftment of cultured CD34+ cord blood cells in NSG mice (FIG. 7); conditions: outcome of 5,000 CD34+ CB cells, 7 days culture, 8-weeks post transplantation (FIG. 7A)
Source text: These experiments were done in short term cultures i.e. 7 days.

CD34+ cord blood cells = experiment: FACS analysis of differentiation of CD34+ cord blood cells (FIG. 4B-4D); conditions: FACS / cytological analysis
[9] = outcome of 2,000,000 and 500,000 cells cultured 10 days, 8 weeks post transplantation

COC(=O)c1ccc2c(c1)[nH]c1ncnc(NCCCN3CCCCC3)c12 [Compound 1, Methyl 4-((3-(piperidin-1-yl)propyl)amino)-9H-pyrimido[4,5-b]indole-7-carboxylate]
aryl hydrocarbon receptor (AhR) antagonism [1]: not being aryl hydrocarbon receptor (AhR) antagonists | expansion of MNCs including CD34+ cells ([1]; 7-day incubation): promote the expansion of MNCs including CD34+ cells | suppression of AhR-downstream target genes (CYP1B1 and AhRR) [2]: does not suppress AhR-downstream target genes | induction of cell proliferation in the absence of growth factors (Flt3, TPO, SCF) [3]: not able to induce cell proliferation | CD34+CD45RA− cell count in the absence of any of the growth factors ([3]; 7 days, with or without Flt3+SCF+TPO): lower | loss of CD34 cell surface expression ([4]; 7 day expansion, optimal levels, vs DMSO control): partly abrogated | differentiation of CD34+ mobilized peripheral blood cells ([4]; FACS / cytological analysis): prevent cell differentiation; also recorded: reduces differentiation | CD34+ cell population compared to DMSO treated control cells ([4]; FACS analysis): able to expand CD34+ cell population | CD34+CD45RA− cells vs SR1 or control cultures ([4]; FIG. 4A, 4B bottom panels): more numerous | expansion of CD34+CD45RA− cell subpopulation ([5]; 12-days culture): about ten fold | total cell count increase above the input ([5]; 12-days culture): about 20 fold | CD34+ population vs DMSO ([5]; FIG. 5A): more than twice | CD34+CD45RA− population vs DMSO ([5]; FIG. 5A): more than three times | total cell count vs DMSO ([5]; FIG. 5A): the same | expansion of cord blood-derived CD34+ and CD34+CD45RA− cells ([6]; 7-day incubation): enhances expansion | in vitro expansion of cord blood-derived CD34+ and CD34+CD45RA− cells ([6]; 12-day incubation): positive effect | expansion of CD34+CD45RA− cord blood cells ([6]; seven day period, DMSO about fifteen fold): 30-40 fold | human hematopoietic engraftment (human CD45+ cells in BM) ([7]; cells cultured ten days, outcome of 50,000 and 500,000 cells, 13 week post-transplantation): superior to SR1; also recorded: engrafted better than that of DMSO | engraftment of NSG mice (human CD45) [7, 9]: able to engraft NSG mice | reconstitution of human myeloid and lymphoid compartments in bone marrow [7, 9]: positive for human CD33+ and CD19+ | human CD45+ engraftment / reconstitution activity [8]: clear effect on reconstitution activity | human CD45+ engraftment / reconstitution activity ([8]; listed as compound 1): human CD45+ engraftment | differentiation of CD34+ cord blood cells (CD34+ cord blood cells): reduces differentiation

— patent US9409906B2, “Pyrimido[4,5-B]indole derivatives and use thereof in the expansion of hematopoietic stem cells” (UNIVERSITÉ DE MONTRÉAL, priority 2012, dated 2016)
